{"source": "patent US7122193B1", "about": "(priority 1994, dated 2006)", "assay_type_in_all_cases": "cell-based, mouse", "key": {"[1]": {"system": "peptide-primed T lymphocytes from BALB/c mice"}, "[2]": {"system": "peptide-primed T lymphocytes from BALB/c mice", "remark": "listed apart in the source"}, "[3]": {"system": "TCR of peptide-primed lymph node T-cells"}}}
{"substance": "CH3CO-(D)Thr-(D)Asp-(D)Lys-(D)Tyr-(D)Thr-(D)Ile-(D)Lys-(D)Trp-(D)Val-(D)Ala-(D)Phe-(D)Leu-(D)Lys-NH2", "values": [{"measurement": "IL-2 production of lymph node cells of mice immunized with parent peptide 103–115, stimulated in vitro by the peptide", "setting": "[1]", "result": "No IL-2 production was observed"}, {"measurement": "maximal IL-2 secretion measured using CTL-L cells in the presence of Con A", "setting": "[1]", "result": "5 570 cpm"}, {"measurement": "proliferation of T-lymphocytes of mice immunized with retro-inverso analogue 103–115, in response to the peptide", "setting": "[2]", "result": "proliferated in response to the homologous peptide"}, {"measurement": "proliferation of lymph node cells of mice immunized with parent peptide 103–115, stimulated in vitro by the peptide", "setting": "[2]", "result": "did not proliferate in vitro"}, {"measurement": "IL-2 secretion by T-cells from mice immunized against the L-peptide 103–115 in the presence of the peptide", "setting": "[3]", "result": "remains unchanged"}]}
